This is an account of results in patent US7144864B2, “Carboxypeptidase R inhibiting peptide” (Hidechika Okada, priority 2002, dated 2006).

“Also recorded” adds a separate entry of the source. Bridge positions count the residues as written; N and C are the ends. Ends that are not written are not given here. Peptide text beside a SMILES is read from it.

In test [1] the target is T1, purified CPR (carboxypeptidase R) (Homo sapiens, UniProt Q96IY4).
T1 construct: from tissue
T1 sequence (Q96IY4 115-423): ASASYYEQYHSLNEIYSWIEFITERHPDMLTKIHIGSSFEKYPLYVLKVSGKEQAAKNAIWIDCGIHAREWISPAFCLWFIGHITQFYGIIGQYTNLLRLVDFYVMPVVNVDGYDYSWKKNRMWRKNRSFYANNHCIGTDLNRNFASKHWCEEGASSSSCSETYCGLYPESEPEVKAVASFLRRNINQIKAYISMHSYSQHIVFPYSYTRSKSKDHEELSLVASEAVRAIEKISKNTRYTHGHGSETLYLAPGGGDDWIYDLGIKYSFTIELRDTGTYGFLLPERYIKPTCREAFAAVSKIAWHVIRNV
As to the kind of experiment: CPR kinetics: inhibition of CPR-catalysed hydrolysis of hippuryl-L-arginine. The class given is biochemical. As to the method: (§1) ProCPR was purified to homogeneity as previously described. […] CPN was purified to homogeneity as previously described. The enzyme gave three bands on SDS-PAGE at 83 kDa, 53 kDa and 50 kDa corresponding to the two large identical glycosylated subunits and the two smaller active subunits, respectively.
The activity of the CPR inhibitors was determined against purified CPR using hippuryl-L-arginine as the substrate. The peptides PCI-2K-R, CPI-2KR, PCI (500, 250/125/62.5, 50 mg/ml, respectively) or Tris-HCl buffer (50 mM; pH 7.5) were added to active CPR (40–320 mg/ml) at a 1:7 ratio. After thorough mixing, […] was incubated with various concentrations of hippuryl-L-arginine (1.2–6.0 mM), for 15 minutes at 37° C. The reaction was stopped with the addition of sodium phosphate buffer ([…]; 0.25 M), immediately followed by 3% cyanuric chloride in 1,4-dioxane ([…]). After mixing well, the generation of hippuric acid was determined by measuring the OD at 405 nm on a SpectraMAX 250 Microplate Spectrophotometer (Molecular Device Corporation, Sunnyvale, Calif., USA). Hippuric acid (0–2.0 mM) in Tris buffer was used as the standard.
A kinetics analysis of the CPR-catalysed hydrolysis of hippuryl-L-arginine in the absence and presence of inhibitory molecules was performed. The Lineweaver-Burk reciprocal plot, based on rearrangement of the Henri-Michaelis-Menten equation into a linear form, was applied:
[formula] where v (in mM sec^−1) is the instantaneous or initial velocity, [S] (mM) is the substrate concentration, Km(mM)is equivalent to the substrate concentration that yields half-maximal velocity and Vmax(mM sec^−1) is the maximum velocity. For competitive inhibition, where the inhibitor competes with the substrate for binding to the enzyme, the following mechanism was assumed: where
In competitive inhibition, the apparent Vmax is not affected with increasing inhibitor concentrations because once substrate binds the reaction proceeds normally (i.e. Vmax depends only on maximum ES complex concentration, which only depends on the total amount of enzyme present) However, the apparent Km increases (i.e. a higher substrate concentration is required for a given velocity) by a factor of [1+([I]/Ki)].
[formula] where Kmapp is the apparent Km for a given inhibitor concentration.
The Dixon plot (1/v versus [I] in the presence of different concentrations of substrate) provides a more diagnostic way of identifying the type of inhibition and determining the Ki: […]

In test [2] the target is T2, purified CPN (carboxypeptidase N) (Homo sapiens, UniProt P15169).
T2 construct: corresponding to the two large identical glycosylated subunits and the two smaller active subunits; from tissue
T2 sequence (P15169 21-458): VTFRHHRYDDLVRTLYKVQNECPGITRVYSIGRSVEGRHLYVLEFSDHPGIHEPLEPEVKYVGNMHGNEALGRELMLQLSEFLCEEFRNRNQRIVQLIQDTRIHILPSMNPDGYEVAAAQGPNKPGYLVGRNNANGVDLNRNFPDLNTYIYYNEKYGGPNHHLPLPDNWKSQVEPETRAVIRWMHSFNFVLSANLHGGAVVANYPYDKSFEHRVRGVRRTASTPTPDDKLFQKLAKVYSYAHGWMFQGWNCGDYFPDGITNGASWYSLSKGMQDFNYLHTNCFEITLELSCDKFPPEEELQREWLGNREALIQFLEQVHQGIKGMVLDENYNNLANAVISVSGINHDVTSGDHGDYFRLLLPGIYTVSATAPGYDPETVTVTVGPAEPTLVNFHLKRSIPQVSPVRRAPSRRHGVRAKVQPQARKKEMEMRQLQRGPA
T2 sequence (P22792 22-545 partner): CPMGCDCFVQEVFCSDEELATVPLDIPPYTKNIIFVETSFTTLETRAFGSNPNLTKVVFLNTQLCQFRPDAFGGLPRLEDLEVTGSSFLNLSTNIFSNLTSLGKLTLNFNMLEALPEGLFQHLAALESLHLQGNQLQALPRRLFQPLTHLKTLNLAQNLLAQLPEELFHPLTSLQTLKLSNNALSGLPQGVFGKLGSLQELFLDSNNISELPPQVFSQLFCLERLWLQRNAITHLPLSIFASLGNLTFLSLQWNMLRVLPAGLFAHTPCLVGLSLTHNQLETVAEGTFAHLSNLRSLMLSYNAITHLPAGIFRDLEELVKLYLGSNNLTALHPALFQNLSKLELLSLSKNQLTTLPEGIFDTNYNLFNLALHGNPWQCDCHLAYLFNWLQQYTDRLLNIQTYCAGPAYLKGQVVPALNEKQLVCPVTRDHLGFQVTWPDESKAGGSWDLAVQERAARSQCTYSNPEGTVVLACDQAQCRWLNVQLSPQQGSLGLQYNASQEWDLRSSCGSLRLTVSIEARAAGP
The experiment in a line: CPN kinetics: effect on purified CPN with hippuryl-L-arginine as substrate. Type of test: biochemical. As to the method:
as §1
The effect of CPI-2KR on purified CPN was determined using hippuryl-L-arginine as the substrate. Guanidinoethylmercaptosuccinic acid (GEMSA) was used as a positive control. CPI-2KR ([…]), GEMSA ([…]) or Tris-HCl buffer (50 mM; pH 7.5) were added to CPN (10 mg/ml) at a 1:7 ratio. Identical conditions to those used for the CPR kinetics experiments were subsequently applied.

In a further test the target is T3, CPR (Homo sapiens, UniProt Q96IY4).
T3 sequence (Q96IY4 115-423): T1 sequence (Q96IY4 115-423)
The conditions noted are these: cited from earlier work.

In test [3] the test system is TM-induced retardation of t-PA-induced fibrinolysis. As to the kind of experiment: TM-induced retardation of t-PA-induced fibrinolysis in human plasma (clot lysis). Type of test: biochemical. As to the method: Human plasma was obtained by centrifugation of citrated blood at 3000 g for 15 minutes at room temperature. In a 96-well microtitre plate, […] of a thrombin/calcium mix [50 ml calcium (CaCl Q; 1 M), […] of thrombin (T; 500 U/ml) and 430 ml of Tris buffer (50 mM, pH 7.5)] was added followed by 10 ml of thrombomodulin (TM; final concentration 8 nM). Subsequently, 10 ml of peptide solution in Tris buffer (16 mg/ml […]), Tris buffer or PCI (50 mg/ml) were added. After the addition of 50 ml of a t-PA/plasma mix [[…] of t-PA (130 mg/ml) mixed with 1 ml of pre-warmed citrated plasma (37° C. for 5 minutes) ] the plate was immediately read at 420 nm every 5 minutes for 2 hours on a SpectraMAX 250 Microplate Spectrophotometer (Molecular Device Corporation, Sunnyvale, Calif., USA). Lysis time was defined as the time required for the absorbance to reach half the difference between the plateau reached after clotting and baseline achieved at clot lysis.

Regarding “PCI-2K: PCI-derived peptide containing the two lysine residues, SEQ ID NO: 1 (NKPCKTHDD)”, in test [1], the “inhibitory activity against CPR (in words)” value is listed as “no activity was observed”.

For the molecule `N=C(N)NCCSC(CC(=O)O)C(=O)O` (centres unmarked) [GEMSA, guanidinoethylmercaptosuccinic acid], the “inhibitory activity against CPN” value in test [2] (at 425 nM) is reported as “inhibited”; in test [2] (at 2.1 mM), “strong inhibitory activity”. For the same molecule, the “concentration at which CPR is inhibited (literature [40])” value on CPR is 18 mM.

With “tetrapeptide C-terminal fragment of PCI: tetrapeptide C-terminal fragment of PCI (PYVG)”, the “inhibitory activity against CPR (in words)” value in test [1] was “does not inhibit”.

`C[C@H](NC(=O)[C@H](CC(N)=O)NC(=O)[C@H](CCCCN)NC(=O)[C@H](C)NC(=O)[C@@H]1CCCN1C(=O)[C@H](CCCCN)NC(=O)[C@@H](N)CS)C(=O)N[C@@H](CCCNC(=N)N)C(=O)N[C@@H](CS)C(N)=O` [CPI-2KR] (H-CKPAKNARC-NH2; N-terminus assumed): the “inhibitory activity against CPN” value in test [2] (at 506 nM) is given as “did not exhibit any inhibitory activity”. Besides, in test [1], the “Ki, fold higher than that of PCI” value came out at 6 fold; the “binding affinity for CPR, fold stronger than PCI-2K-R” value was approximately 46 fold; the “inhibitory activity against CPR (in words)” value is given as “competitive inhibitor”. In test [3], the “effect on TM-induced retardation of t-PA-induced fibrinolysis (in words)” value (“effect on TM-induced retardation” below) is listed as “synergistically accelerated fibrinolysis; also recorded: dose-responsive inhibition” and the “effective inhibitory concentration, fold higher than that of PCI” value turned out to be 10 fold. The “effective inhibitory concentration on TM-induced retardation of t-PA-induced fibrinolysis” value in test [3] (TM 8 nM) is listed as 126 nM.

“CPI-2KR-cyclic: cyclised CPI-2KR via N- and C-terminal cysteine residues, SEQ ID NO: 3 (CKPAKNARC; disulfide 1-9)”: the “effect on TM-induced retardation” value in test [3] is reported as “dramatic loss of inhibitory activity”.

Consider “PCI-R: PCI-derived peptide containing the arginine residue, SEQ ID NO: 2 (QACWNSART)”, for which the “inhibitory activity against CPR (in words)” value in test [1] is recorded as “no activity was observed”.

Turning to “PCI: small 39-residue protein (MW 4295 Da), potato carboxypeptidase inhibitor, SEQ ID NO: 4 (QQHADPICNKPCKTHDDCSGAWFCQACWNSARTCGPYVG) [reference compound]”, the Km in test [1] (hippuryl-L-arginine substrate, Lineweaver-Burke, read-out: Km of CPR in the presence of the inhibitor) was determined as 12.3 mM. Besides, the Ki in the test with CPR (read-out: Ki against CPR (literature)) is 0.4 nM. The “effect on TM-induced retardation” value in test [3] was “permitting fibrinolysis to proceed”.

A word on the Km: it is the substrate concentration at which the rate is half of its maximum. As usually defined, the Ki is the equilibrium dissociation constant of an inhibitor or competing ligand from its target.
